Experimental data: US20180339015A1, “Therapeutic Nanoparticles Comprising An Antibiotic and Methods of Making and Using Same” (priority 2015, published 2018)

Legend:
[1] = system: Shigella spp; conditions: cited from earlier work
[2] = system: Salmonella spp; conditions: cited from earlier work
[3] = system: E. coli; conditions: cited from earlier work
[4] = system: P. aeruginosa; conditions: cited from earlier work
[5] = system: K. pneumoniae; conditions: cited from earlier work
[6] = system: Enterobacter spp; conditions: cited from earlier work
[7] = system: Citrobacter spp; conditions: cited from earlier work
[8] = system: Acinetobacter species; conditions: cited from earlier work
[9] = system: K. pneumonia; test: K. pneumonia lung infection model; format: in vivo; conditions: single 40 mg/kg dose s.c., n=6
Method: CS-NPs were tested for their efficacy in a K. pneumonia lung infection model. Results are depicted in FIG. 11.

[10] = mice, intravenous injection
[11] = system: Klebsiella; test: Klebsiella thigh infection model, efficacy and biodistribution; format: in vivo
Method: CS-NPs were further tested for their efficacy and biodistribution in a Klebsiella thigh infection model. […] In summary. CS-NPs have the same efficacy as free CS in a thigh infection model after 24 hours.

Substance	MIC90 [1] [µg/mL]	MIC90 [2] [µg/mL]	MIC90 [3] [µg/mL]	MIC90 [4] [µg/mL]	MIC90 [5] [µg/mL]	MIC50 [6] [µg/mL]	MIC90 [7] [µg/mL]	MIC90 [8] [µg/mL]	animals sterilized [9] [%]	LD50 [10] [mg/kg]	MTD [10] [mg/kg]	bacteremia ([11]; thigh infection model)	bacteria counts in site of infection ([11]; thigh, after 24 hours)
colistin	≤ 0.5	≤ 1	≤ 2	≤ 4	≤ 1	≤ 1	≤ 1	≤ 2	–	–	–	–	–
colistin sulphate [CS]	–	–	–	–	–	–	–	–	50	6	2	prevented bacteremia	significantly decreased bacteria counts
